The text below walks through data of patent US11883398B2, “Dipeptidylpeptidase 4 inhibition enhances lymphocyte trafficking, improving both naturally occurring tumor immunity and immunotherapy” (INSTITUT PASTEUR, priority 2015, dated 2024).

Experiment [1] deals with B16F10 tumors. The experiment is described as follows: Flow cytometry of leukocytes infiltrating B16F10 tumors. Type of experiment: in vivo, mouse. Here is the method:
B16F10 and M04 (Ovalbumin-expressing B16F10 cells, gift from C. Reis e Sousa) tumor cells were cultured in DMEM (Gibco) supplemented with 10% FCS (PAA), 0.1 mM non-essential amino acids, 1 mM sodium pyruvate, 10 mM Hepes, 70 μM beta-mercaptoethanol and 23 μg/ml gentamycin (all from Gibco). CT26 colon carcinoma cells were cultured in RPMI (Gibco) supplemented as described for DMEM. Cells for injections were passaged 1-2 times after thawing, before use. WT and genetically modified mice were subcutaneously injected with 2×10^5 B16 or 5×10^5 CT26 cells in the shaved right flank. When indicated, mice received an intra-tumoral injection of 1 μg of recombinant mCXCL10, 5 μg CpG-A in DOPTAP or vehicle control. For blocking of chemokine and chemokine receptors, WT mice were intraperitoneally injected with 100 μg of hamster a-mCXCR3 (clone CXCR3-173, BioLegend), 100 μg of hamster α-mCCR5 (clone HM-CCR5, BioLegend), 50 μg of rat anti-mCXCL10 (clone 134013, R&D systems) and 20 μg of rat-α-mCXCR4 (clone 2B11/CXCR4, BD Biosciences) or with respective isotype antibodies (hamster IgG (clone HTK888, BioLegend, used as control for mCXCR3 and mCCR5 blockage); rat IgG2a (clone 54447, R&D systems, used as control for mCXCL10 blockade) and rat IgG2b (clone A95-1, BD Biosciences, used as control for mCXCR4 blockade). Intraperitoneal injection was done one day before and 4, 8 and 12 days after tumor cell injection. For CXCL10 neutralization, antibodies were injected on day 2, 5, 8 and 11 after tumor cell injection. For immunotherapy protocols, mice were intraperitoneally injected with 100 μg of mouse α-CTLA-4 (clone 9D9, Bioxcell), 200 μg of PD1 (clone RMP1-14, Bioxcell), a combination of 100 μg of α-CTLA-4+200 μg of a-PD1 or control isotypes (100 μg […] and 200 μg rat IgG2a (clone 2A3), both from Bioxcell) on day 3, 6 and 9 after tumor cell implantation. For adoptive cell transfer experiments, Pmel-1 Thy-1.1^+Thy-1.1^+, Cxcr3^−/− Thy-1.1^+Thy-1.2^+ Pmel-1 or OT1 splenocytes were activated ex-vivo, by incubation with 1 nM of human gp100 (for Pmel-1 cells) or […] (for OT1 cells) peptides for 1h at room temperature with agitation. Splenocytes were then washed and resuspended in R10 supplemented with 30U/mL of recombinant human IL-2. CD8^+ T cells were expanded for 6-7 days before used. For analysis of tumor infiltrates, activated Cxcr3^+/+ Thy-1.1^+Thy-1.1^+ and Cxcr3^−/− Thy-1.1^+Thy-1.2^+ transgenic Pmel-1 CD8^+ T cells were mixed in a 1:1 ratio (total 1×10^6 cells) and injected intravenously into gender matched tumor-bearing mice (3 days after tumor cell injection). For analysis of tumor growth, activated OT1 cells were injected intravenously (1×10^5 cells per mouse) into gender matched tumor-bearing mice, 3 days after tumor cell injection. Tumor height and width were measured with a caliper and tumor volume was calculated (Elliptical volume=width^2×height×0.523). The model of metastatic melanoma was achieved by intravenous injection of 2×10^5 B16 tumor cells. 15 days after tumor cell injection, lungs were dissected, placed in Fekete's solution and metastatic foci were counted. Lungs with more than 100 metastatic nodules were defined as 100.
Fluorochrome-conjugated anti-mouse CD3 (clone145-2C11), CD8 (clone 53-6.7), CD4 (clone RM4-5), NK1.1 (clone PK136), CD49b (clone DX5), CD25 (clone PC61), B220 (clone RA3-6B2), Ly6G (clone 1A8), Ly6C (clone AL-21), CD11 b (clone M1/70) Siglec-F (clone E50-2440), MHCII IA-IE (clone M5/114.15.2), CD45.2 (clones 56-0454-82 and 109830), Thy-1.1 (clone HIS51), Thy-1.2 (clone 53-2.1), DPP4 (clone H194-112) and CXCR3 (clone CXCR3-173) were from eBiosciences and BD Biosciences. Fluorochrome conjugated anti-F4/80 (clone CI:A3-1) was from AbDserotec. For exclusion of dead cells, Live/Dead fixable Aqua reagent (Invitrogen) was used. For all staining protocols, cell suspensions were incubated with mouse CD16/CD32 Fc Blocking antibodies (BD Biosciences) prior to antibody. […]

For experiment [2], the target named is DPP9 (Homo sapiens, UniProt Q86TI2). Conditions: Verspohl 2012; Huan et al. 2015; cited from earlier work.
[3] abbreviates: B16F10 tumors, sitagliptin vs control.

Sequence of DPP9 (Q86TI2 whole entry, species assumed): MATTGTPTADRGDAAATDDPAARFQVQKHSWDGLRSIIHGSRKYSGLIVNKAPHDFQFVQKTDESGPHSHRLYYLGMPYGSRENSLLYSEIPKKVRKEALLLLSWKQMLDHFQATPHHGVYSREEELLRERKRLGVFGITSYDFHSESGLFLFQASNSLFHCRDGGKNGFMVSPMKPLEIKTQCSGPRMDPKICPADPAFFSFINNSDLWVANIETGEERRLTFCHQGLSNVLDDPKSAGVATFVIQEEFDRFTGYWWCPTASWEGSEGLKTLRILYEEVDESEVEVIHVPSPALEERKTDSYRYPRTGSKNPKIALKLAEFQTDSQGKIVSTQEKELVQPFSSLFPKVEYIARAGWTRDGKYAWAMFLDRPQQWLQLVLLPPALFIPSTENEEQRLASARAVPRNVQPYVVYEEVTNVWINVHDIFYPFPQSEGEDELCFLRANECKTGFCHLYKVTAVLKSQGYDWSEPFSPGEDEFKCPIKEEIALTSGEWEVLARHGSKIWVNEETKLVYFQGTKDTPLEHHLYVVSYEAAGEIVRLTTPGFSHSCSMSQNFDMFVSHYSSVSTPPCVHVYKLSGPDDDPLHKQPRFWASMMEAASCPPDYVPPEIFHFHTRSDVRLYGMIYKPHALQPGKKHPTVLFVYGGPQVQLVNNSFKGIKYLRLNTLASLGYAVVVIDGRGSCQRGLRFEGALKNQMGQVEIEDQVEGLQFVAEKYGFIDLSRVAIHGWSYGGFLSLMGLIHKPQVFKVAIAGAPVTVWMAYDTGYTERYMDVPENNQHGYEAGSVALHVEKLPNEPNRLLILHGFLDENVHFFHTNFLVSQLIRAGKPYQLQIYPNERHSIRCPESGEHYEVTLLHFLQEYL

Turning to `N[C@@H](CC(=O)N1CCn2c(nnc2C(F)(F)F)C1)Cc1cc(F)c(F)cc1F` [sitagliptin], in experiment [1] (setting [3]), the “number of CD4+ and CD8+ T cells localized to the tumors” value is “significant increase”; the “number of tumor-infiltrating myeloid cells, NK cells, B lymphocytes or CD25hi regulatory T cells” value is “no significant differences”. For the same compound, in experiment [1] (adoptive transfer, 12-14 hr after intratumoral mCXCL10), the “CXCL10-mediated trafficking of Pmel-1 cells into B16F10 tumors” value was “enhanced”. For the same compound, in experiment [1] (day 7 B16F10 tumors, 12-14 h after injection), the “lymphocyte recruitment into the tumor parenchyma after intratumoral mCXCL10” value is “enhanced CXCL10 recruitment of T cells and NK cells”. Besides, the “trafficking of B cells, regulatory T cells, eosinophils or neutrophils into tumors after intratumoral mCXCL10” value in experiment [1] (day 7 B16F10 tumors, sitagliptin vs control) is “unchanged”. Further, the “effect on DPP9 activity” value in experiment [2] is reported as “no effect”.
